According to patent publication US20220268782A1, “METHODS FOR PREDICTING AND TREATING CARDIAC DYSFUNCTION” (INSERM (INSTITUT NATIONAL DE LA SANTÉ EAT DE LA RECHERCHE …, priority 2019, published 2022):

How the values were obtained:
[1] = tested on: C2C12 myoblasts; experiment: PA-induced senescence in C2C12 myoblasts (immunoblot of senescence markers, EdU incorporation); assay type: cell-based; conditions: C2C12 cells
Protocol: Cells were washed briefly with ice-cold 1×PBS, scraped in 400 μL T-PER lysis buffer (ThermoFisher) supplemented with 0.1 mM phenylmethylsulphonyl fluoride (PMSF) and protease/phosphatase inhibitor cocktail tablet (ThermoFisher). Pulverised tissue samples (20-30 mg) were lysed in the same buffer accelerated by sonication and passing through a 21 G needle. To pellet any debris, lysates were centrifuged at 10,000 g for 10 minutes at 4° C., with the supernatant transferred to fresh tubes. Protein concentrations were determined with Bradford assay (Biorad) and lysates were diluted to equal concentration with lysis buffer. Protein lysates were then mixed with Laemmli buffer, vortexed and heated to 95° C. for 5 min. Equal amounts of protein lysates in parallel with protein molecular weight marker (ThermoFisher) were loaded onto pre-cast polyacrylamide gels (Nupage 10 or 12% Bis Tris gel, Novex, Invitrogen) and separated by electrophoresis at 200V for 1 hour. Proteins were transferred onto polyvinylidene difluoride (PVDF) membrane (Invitrogen) using an electrophoretic transfer cell (Mini Trans-Blot, Bio-Rad) in ice-cold transfer buffer (48 mM Tris base, […], 0.1% SDS, 20% methanol (v/v)) at 300 mA for 2 hours. Membranes were blocked in 1× skimmed milk (ThermoFisher) for 1 hour at room temperature, followed by overnight incubation with primary antibody diluted in blocking buffer at 4° C. Next day membranes were washed, followed by 60 minutes incubation in the corresponding horseradish peroxidase (HRP)-conjugated secondary antibody diluted 1:2000-10000 in blocking buffer (all Abcam). Blots were developed using enhanced chemiluminescence (ECL) reagents (normal, Prime & Select) and digital images were acquired using an imaging system (Azure Biosystems). Membranes were usually stripped of antibodies and reprobed with an antibody targeting a protein serving as loading control (α-actinin for hearts & β-actin for all others). For this procedure, membranes were placed in Guanidine-HCl-based stripping solution (6M Guanidine-HCl, 0.2% Nonidet P-40, 0.1M β-mercaptoethanol, 20 mM Tris-HCl, pH 7.5 and 100 mM 2-mercaptoethanol) and incubated for 10 minutes at room temperature with gentle agitation, followed by extensive washing and re-blocking.^5
C2C12 (ATCC® CRL-1772™) myoblasts maintained in DMEM supplemented with L-glutamine (2 mM), penicillin/streptomycin (1%) and 5% fetal bovine serum (FBS) were seeded either at a density of 5×10^4 cells (<50%) per well in 24-well plates or 10^4 cells in 4-well chamber slides. Cells were with L-phenylalanine (1-10 mM)+BH4 (10 μM) and incubation with increasing concentrations of N-acetylcysteine (0.5, 2.5, 5 mM) vs. vehicle overnight as indicated. Cells were analysed for oxidative stress with MitoSOX™ (mitochondrial superoxide; 5 μM, ThermoFisher Scientific), CellROX™ (cytosolic superoxide; 5 μM, ThermoFisher Scientific), gene or protein expression, or various metabolites (see below).

[2] = tested on: primary adult rat cardiomyocytes; experiment: Immunoblot of p21 in primary adult rat cardiomyocytes; assay type: cell-based; conditions: FIG. 1g
Protocol: Male Spargue Dawley rats (9 weeks, 300-350 g) were anesthetised with ketamine and xylazine (100 and 10 mg/kg, respectively) with heparin added (100 UI/kg). Hearts were excised and retrogradely perfused with an oxygenated ([…]) perfusion buffer consisting of NaCl 113 mM, KCl 4.7 mM, KH2PO4 0.6 mM, Na2HPO4 0.6 mM, MgSO4-7H2O 1.2 mM, NaHCO3 12 mM, KHCO3 10 mM, HEPES 10 mM, Taurine 30 mM, phenol red 0.032 mM, D-glucose 5.5 mM, 2,3-butanedionemonoxime 10 mM, pH 7.4) for 2 minutes to wash out the blood from the coronary arteries. Then hearts were perfused with a digestion buffer (perfusion buffer supplemented with 0.1 mg/mL liberase, 0.14 mg/mL trypsine-EDTA and 12.5 μM Ca^2+) for 10-12 minutes. Hearts were then placed in a stopping buffer (perfusion buffer supplemented with 10% NBCS and 12.5 μM Ca^2+). Atria and right ventricles were removed. Left ventricles were dissected into small fragments, then subjected to successive aspirations-reflux. Digested ventricles were filtered through a 250 μm cell strainer. […]
Cells were washed briefly with ice-cold 1×PBS, scraped in 400 μL T-PER lysis buffer (ThermoFisher) supplemented with 0.1 mM phenylmethylsulphonyl fluoride (PMSF) and protease/phosphatase inhibitor cocktail tablet (ThermoFisher). […] Protein concentrations were determined with Bradford assay (Biorad) and lysates were diluted to equal concentration with lysis buffer. […]

Row | Structure (SMILES) | PA-dependent senescence (p21 protein, EdU incorporation) ([1]; PA 5 mM + BH4 10 μM, FIG. 1c-d) | PA-induced p21 protein ([2]; PA 5 mM + BH4 10 μM) | other markers of senescence (Cdkn2a=p16 and phospho-p53=p-p53) ([1]; PA 5 mM vs. vehicle, FIG. 1a) | cyclin-dependent kinase 1a (Cdkn1a=p21) protein ([1]; PA 5 mM vs. vehicle, FIG. 1a-b) | EdU incorporation ([1]; PA treatment, FIG. 1d) | p21 protein ([2]; PA 5 mM, 4-hour incubation)
1 | CC(O)C(O)C1CNc2nc(N)[nH]c(=O)c2N1 (stereo not drawn) [BH4, 2-amino-6-(1,2-dihydroxypropyl)-5,6,7,8-tetrahydro-3H-pteridin-4-one] | antagonised | rescue |  |  |  | 
2 | N[C@@H](Cc1ccccc1)C(=O)O [PA, (S)-2-Amino-3-phenylpropanoic acid] |  |  | remained unaltered | selectively induced | suppressed | selective induction
